# Experimental data taken from article PMC7367873, “Dissecting the sequence determinants for dephosphorylation by the catalytic subunits of phosphatases PP1 and PP2A” (Nature Communications, 2020).
# System: GFP-14-3-3β and its binding proteins
# Assay: GFP-14-3-3β co-IP with LC-MS/MS label-free quantification, untreated versus PP1c-treated
# Design: species or system human
# Conditions: GFP-14-3-3β co-IP LC-MS/MS; PP1 vs untreated; student's t-test; label-free quantification, 3 replicates each
# Procedure: (§1) HeLa Kyoto cells expressing transiently transfected pEGFP(C1)-14-3-3β or pEGFP(C1) control plasmid, were incubated with 20 nM Calyculin A (# 9902 S, Cell Signaling Technology) for 12 min. Cells were washed twice on ice with cold PBS and after addition of 500 µL lysis buffer (100 mM NaCl, 10 mM Tris, 0.1% IGEPAL, 1 mM EDTA, 1 mM EGTA, 20 nM Calyculin A, 1x cOmplete Mini protease inhibitor cocktail (Sigma), 1 mM DTT, 1 mM MnCl2) cells were scraped from plates, lysed by 10 pushes through an injection needle (21 G, BD) and the insoluble fraction was pelleted by centrifugation (10 min, 10^4 rcf, 4 °C). Supernatants were then subjected to incubation with 1 µM recombinant phosphatase or buffer for 1 h at 30 °C. Next, we subjected samples to immunoprecipitation using α-GFP nanobodies covalently coupled to agarose beads (2 h, 4 °C, obtained from the EMBL PEPcore Core Facility). Beads were then washed three times with lysis buffer and samples were eluted in 1x LDS sample buffer (Thermo Fisher Scientific) by heating to 70 °C for 10 min.
# (§2) The samples were then reduced with 25 mM dithiothreitol (10 min at 70 °C) and alkylated with 55 mM chloroacetamide (room temperature, 30 min, in the dark). Proteins were run on a precast 4–12% NuPAGE gel (ThermoFisher Scientific) for about 1 cm to concentrate the sample prior to in-gel tryptic digestion, which was performed according to the standard procedures. The peptides obtained were dried to completeness and resuspended in 12 µL of buffer A (0.1% FA), and 5 µL of sample were injected per MS measurement. The experiment was carried out in three independent replicates.
# (§3) The samples were analyzed by LC-MS/MS on a Dionex Ultimate 3000 nano-HPLC coupled online to a Fusion Lumos Tribrid mass spectrometer (Thermo Fisher Scientific). Peptides were delivered to a trap column (75 µm × 2 cm, packed in-house with 5 µm C18 resin; Reprosil PUR AQ, Dr. Maisch) and washed using 0.1% FA at a flow rate of 5 µL/min for 10 min. Subsequently, peptides were transferred to an analytical column (75 µm × 45 cm, packed in-house with 3 µm C18 resin; Reprosil Gold) applying a flow rate of 300 nL/min and separated using a 60 min linear gradient from 4% to 32% LC solvent B (0.1% FA, 5% DMSO in ACN) in LC solvent A (0.1% FA in 5% DMSO). The eluate from the analytical column was sprayed via a stainless steel emitter (Thermo Fisher Scientific) at a source voltage of 2.1 kV into the mass spectrometer. The transfer capillary was heated to 275 °C. The Fusion Lumos was operated in positive ionization mode and data-dependent acquisition (DDA), automatically switching between MS1 and MS2 spectrum acquisition. Full scan MS1 spectra were recorded in the Orbitrap from 360 to 1300 m/z at a resolution of 60k (automatic gain control (AGC) target value of 4e5 charges, maximum injection time (maxIT) of 50 ms). Up to 20 peptide precursors were isolated (isolation window, 1.7 m/z; maximum injection time, 25 ms; and AGC value, 1e5), fragmented by high-energy collision-induced dissociation (HCD) using 30% normalized collision energy (NCE), and analyzed at a resolution of 15k in the Orbitrap. Precursor ions that were singly charged, unassigned, or with charge states >6+ were excluded. The dynamic exclusion duration of fragmented precursor ions was 20 s.
# (§4) Peptide and protein identification and LFQ were performed using MaxQuant software (version 1.6.1.0)[64] by searching the data against all canonical protein sequences as annotated in the Swissprot reference database (human proteins only, 20193 entries, downloaded 22 March 2016, internally annotated with PFAM domains) using the embedded search engine Andromeda[65]. The MaxQuant search was performed using two variable modifications; oxidation of methionine and N-terminal protein acetylation. Carbamidomethylation on cysteines was specified as a fixed modification. Trypsin (Trypsin/P) was specified as the proteolytic enzyme with up to two allowed missed cleavage sites.
row,Substance,"Difference (log2), PP1 vs untreated [log2]"
1,PCNT,-0.6422
2,RAD50,-0.3723
3,DDX6,-0.3213
4,CLASP1,-0.7054
5,CAD,-0.6324
6,TIMM50,-0.2989
7,EFTUD2,-0.7202
8,SQSTM1,-0.4375
9,HNRNPU,-0.3998
10,ECM29,-0.2746
11,HSPA8,-0.3347
12,PSIP1,-0.2351
13,AKAP13,-0.6453
14,SMN1,-0.1766
15,DHX9,-0.3598

# Same assay, conditions: PP1 vs untreated; LFQ intensities, replicates 1-3
row,Substance,"Difference (log2), PP1 vs untreated [log2]"
1,LANCL1,-1.493
2,RICTOR,-0.7631
3,YES1,-0.8848
4,SEC16A,-1.037
5,HSP90AB1,-0.9521
6,PPIA,-2.011
7,H2AFY,-1.711
8,YWHAE,-1.3
9,NUP210,-1.109
10,PPL,-1.031
11,NUMA1,-0.7467

# Same assay, conditions: PP1 vs untreated; LFQ intensities; 3 replicates each
row,Substance,"Difference (log2), PP1 vs untreated [log2]"
1,ELAVL1,0.612
2,DNAJA2,0.6145
3,TFAM,0.5786
4,VDAC1,0.6266
5,ABCF1,0.4338

# Same assay, conditions: PP1 vs untreated; label-free quantification
row,Substance,"Difference (log2), PP1 vs untreated [log2]"
1,SSRP1,0.7419
2,PHB2,1.222
3,IFI16,0.961
4,FYN,0.8257
5,SOGA1,0.818
6,G3BP1,0.9288
7,MYO5C,0.9874
8,LARP4,0.983

# Same assay, conditions: log2 difference; pairwise comparison PP1 vs untreated, label-free quantification, 3 replicates each
row,Substance,"Difference (log2), PP1 vs untreated"
1,PCM1,2.301
2,FXR1,2.4595
3,EMC1,1.575
4,NSUN2,1.3958
5,DSP,4.203

# Same assay, conditions: pairwise comparison PP1 vs untreated
row,Substance,"Difference (log2), PP1 vs untreated [log2]"
1,PABPC1,0.26
2,DNAJA1,-0.1402
3,ZC3H4,-0.1033
4,MTCL1,0.08295
5,SUPT16H,0.1332
6,TUBA1B,0.07589
7,TJP1,-0.07001
8,NPM1,0.1234
9,HDAC2,0.1471
10,LARS,0.05859
11,TOMM40,-0.1328
12,XRCC5,0.08186
13,SYNCRIP,0.2079

# Same assay, conditions: pairwise comparison PP1 vs untreated, student's t-test; 3 replicates each; LC-MS/MS label-free quantification
row,Substance,"Difference (log2), PP1 vs untreated [log2]"
1,ARAF,-3.95
2,MYCBP2,-3.693
3,MYH9,-2.032
4,SHROOM3,-2.387
5,CD44,-2.392
6,WDR62,-3.602
7,DENND4C,-4.253
8,TPM4,-3.308
9,TTC28,-4.888
10,SPTAN1,-2.033
11,LMO7,-2.202

# System: GFP-14-3-3β
# Assay: GFP-14-3-3β co-IP with LC-MS/MS, untreated GFP-14-3-3β versus GFP control (14-3-3 interactome)
# Assay type: binding, human
# Conditions: GFP-14-3-3β co-IP LC-MS/MS; untreated vs GFP; student's t-test; label-free quantification, 3 replicates each
# Procedure: as §1, §2, §3, §4
row,Substance,"Difference (log2), untreated vs GFP [log2]"
1,PCNT,1.216
2,RAD50,0.4724
3,DDX6,1.378
4,CLASP1,1.4296
5,CAD,0.93
6,TIMM50,1.085
7,EFTUD2,2.59
8,SQSTM1,0.1051
9,HNRNPU,0.9402
10,ECM29,-0.4278
11,HSPA8,-0.3706
12,PSIP1,1.521
13,AKAP13,1.366
14,SMN1,1.023
15,DHX9,1.512

# Same assay, conditions: log2 difference; pairwise comparison untreated vs GFP, label-free quantification, 3 replicates each
row,Substance,"Difference (log2), untreated vs GFP"
1,PCM1,-0.166
2,FXR1,-1.238
3,EMC1,-0.5374
4,NSUN2,-0.08076
5,DSP,-0.252

# Same assay, conditions: pairwise comparison untreated GFP-14-3-3β vs GFP, student's t-test; 3 replicates each; LC-MS/MS label-free quantification
row,Substance,"Difference (log2), untreated vs GFP [log2]"
1,ARAF,3.851
2,MYCBP2,7.929
3,MYH9,0.3664
4,SHROOM3,4.814
5,CD44,0.8931
6,WDR62,4.129
7,DENND4C,3.4091
8,TPM4,0.1774
9,TTC28,4.184
10,SPTAN1,0.5148
11,LMO7,0.9984

# Same assay, conditions: pairwise comparison untreated vs GFP
row,Substance,"Difference (log2), untreated vs GFP [log2]"
1,PABPC1,0.5949
2,DNAJA1,-0.4796
3,ZC3H4,0.7684
4,MTCL1,0.986
5,SUPT16H,0.2233
6,TUBA1B,-0.8319
7,TJP1,1.92
8,NPM1,0.2613
9,HDAC2,0.5775
10,LARS,-0.7263
11,TOMM40,1.138
12,XRCC5,-0.1105
13,SYNCRIP,0.5804

# Same assay, conditions: untreated vs GFP; LFQ intensities, replicates 1-3
row,Substance,"Difference (log2), untreated vs GFP [log2]"
1,LANCL1,-0.5316
2,RICTOR,3.3487
3,YES1,-0.5463
4,SEC16A,2.809
5,HSP90AB1,0.1843
6,PPIA,-0.5989
7,H2AFY,1.914
8,YWHAE,6.648
9,NUP210,2.632
10,PPL,-0.5694
11,NUMA1,2.2393

# Same assay, conditions: untreated vs GFP; LFQ intensities; 3 replicates each
row,Substance,"Difference (log2), untreated vs GFP [log2]"
1,ELAVL1,3.578
2,DNAJA2,-1.855
3,TFAM,-2.855
4,VDAC1,1.0866
5,ABCF1,1.553

# Same assay, conditions: untreated vs GFP; label-free quantification
row,Substance,"Difference (log2), untreated vs GFP [log2]"
1,SSRP1,1.339
2,PHB2,1.117
3,IFI16,0.868
4,FYN,-1.633
5,SOGA1,-0.02242
6,G3BP1,-0.3554
7,MYO5C,-0.7461
8,LARP4,-0.1959
